Reference: US20150125506A1, “RETINAL PIGMENT EPITHELIAL CELLS DIFFERENTIATED FROM EMBRYONIC STEM CELLS WITH NICOTINAMIDE AND ACTIVIN A” (HADASIT MEDICAL RESEARCH SERVICES AND DEVELOPMENT LTD., priority 2007, published 2015)

Tested on: hESC clusters
Assay: RT-PCR and Real-time PCR of marker transcripts in differentiating hESC clusters
Assay type: cell-based, human
Details: for enhancement of MiTF-A expression by NA supplementation / increase of RPE65 expression with vs without NA: 12 weeks
Procedure: Six-eight days after plating the hES cells that were dissociated into single cells as above; they were removed from the feeders by treatment with type IV collagenase. The clumps were cultured for various periods up to 12 weeks in suspension within bacteriological dishes precoated with 0.1% low melting temperature agarose in KO medium (KOM) consisting of 86% KO-DMEM, 14% KOSR, 1 mM glutamine, 1% nonessential amino acids, 50 units/ml penicillin, and 50 μg/ml streptomycin, in the presence or absence of 10 mM nicotinamide (NA) (Sigma, St. Louis, Mo., USA). In some experiments the medium used was Neurobasal™ medium (Gibco) supplemented with N2 supplement (1:100) (Gibco) (NN medium), which was substituted after 1 week with DMEM/F12 (Gibco) supplemented with B27 (1:50) (Gibco).
Human ESCs were allowed to differentiate as free-floating clusters in KOM as above for up to six weeks in the presence of nicotinamide (NA) 10 mM. After the first week or 2 weeks of differentiation, cultures were supplemented with activin A 20-180 ng/ml (PeproTech Inc, Rocky Hill, N.J.), with TGFβ3 (1 ng/ml; R&D Systems Inc, Minneapolis, Minn.) with TGFβ1 (1 ng/ml-20 ng/ml; R&D Systems Inc) or with SB431542 (5 μM-50 μM, Sigma). Control cultures were supplemented with NA alone.
Human ESCs in suspension in KOM were also supplemented after one week with the bone morphogenetic protein (BMP) antagonist noggin (700 ng/ml R&D Systems Inc, Minneapolis, Minn.) in the presence and absence of NA, or during the 3rd and 4th weeks with TGFβ (20 ng/ml PeproTech Inc) in the presence of NA and allowed to differentiate up to an age of 6 weeks as free-floating clusters in suspension.
Total RNA was extracted from hESCs grown under serum-free conditions (1 week after passage), and at sequential time points up to 8 weeks during culturing of hESC-derived clusters in the presence or absence of 10 mM nicotinamide and with or without supplementation with TGFβ-superfamily growth factors or antagonists. The RNA was isolated using TRIzol reagent (Invitrogen, http://www.invitrogen.com) or TRI-Reagent (Sigma). cDNA synthesis was carried out using Moloney murine leukemia virus reverse transcriptase (M-MLV RT) and random primers, according to the manufacturer's instructions (Promega Corporation, Madison, Wis., http://www. promega.com). Polymerase chain reaction (PCR) was carried out using standard protocols with Taq DNA Polymerase (Gibco-BRL). Amplification conditions were as follows: denaturation at 94° C. for 15 seconds, annealing at 55° C. for 30 seconds, and extension at 72° C. for 45 seconds. The number of cycles varied between 18 and 40, depending on particular mRNA abundance. Primer human sequences for identifying human gene transcripts (forward and reverse 5′-3′) and the length of the amplified products were as follows (SEQ ID NOs. 1-12):
For Real-time PCR the levels of transcripts were monitored using TaqMan primers and probes that were derived from the commercially available TaqMan® Assays-on-Demand Gene Expression Products (Applied Biosystems, Foster City, Calif.): Oct4, ID Hs01895061; Musashi, ID Hs01045894; Pax6, ID Hs00240871; Six3, ID Hs00193667; Rx1, ID Hs00429459; Chx10, ID Hs01584048; MiTF-A, ID Hs01115553; MiTF-total, ID Hs01115557; Bestrophin, ID Hs00188249; RPE65, ID Hs00165642; Sox10, ID Hs00366918; Crx, ID Hs00230899. Quantitative PCR analysis was performed using an ABI Prism 7000HT and ABI Prism 7900HT Sequence Detection Systems and TaqMan® Universal PCR Master Mix (Applied Biosystems) according to the manufacturer's protocol. Housekeeping gene β-glucuronidase (GusB, assay ID Hs99999908) was selected as an internal reference for normalization in the Real-Time RT-PCR quantification analysis and the relative expression level of each gene is shown as a relative value when the expression level of day 0 (or untreated cells) was set at 1. Amplification reactions were carried out in duplicates or triplicates according to manufacturer's protocol (Applied Biosystems).

[1] = 2 weeks old clusters, RT-PCR, with vs without NA
[2] = 6 weeks of differentiation, KOM, with vs without NA, Real-time RT-PCR

NC(=O)c1cccnc1 [NA, nicotinamide]
expression of activin receptor ACTRIB [1]: high | expression of activin receptor ACTRIIB [1]: high | increase of MiTF-A expression in presence of NA [2]: nearly two-fold | increase of RPE65 expression in presence of NA [2]: ~30 fold | augmentation of RPE65 expression (8-week time course, NA-treated vs spontaneously differentiating clusters): > 100 folds | enhancement of MiTF-A expression by NA supplementation (KOM): approximately 3 fold | increase of RPE65 expression with vs without NA (KOM): approximately doubled | expression of Chx10 (NA treatment vs no NA): increased | expression of Crx (photoreceptor progenitor marker) (NA treatment vs no NA): increased | expression of Rx1 transcripts (NA treatment vs no NA): increased | expression of Six3 transcripts (NA treatment vs no NA): increased | expression of Bestrophin transcripts (NA-treated cultures vs spontaneously differentiating hESC clusters): higher | enhancement of MiTF-A expression by NA supplementation (NN/DMEM medium): approximately 2.5 fold | increase of RPE65 expression with vs without NA (NN/DMEM medium): ~6 fold | expression of Pax6 transcripts (after 2-6 weeks of differentiation, with vs without NA): significantly increased | expression of Otx2 transcripts (after 2 weeks of differentiation, with vs without NA): significantly increased | expression of Musashi transcripts (after 4-6 weeks of differentiation, with vs without NA): significantly increased | expression of transcripts of the early RPE marker MiTF A (time course in presence of NA): induced after 4 weeks | expression of Oct4 (marker of undifferentiated hESCs) (time course, with vs without NA): declined more rapidly | expression of Sox10 (melanocyte developmental marker) (with vs without NA, M51 melanoma cell line as control): not dependent on NA supplementation
